Read-outs that look alike come from different tables or passages of the source.

Series [1] has as its system aconitine-induced arrhythmia. The series can be described thus: in vivo. It is filed as in vivo, rat (Sprague Dawley). As to the method: (§1) To determine the anti-arrhythmic activity, the substance is administered orally to rats (Sprague Dawley, weight 200-250 g) 45 minutes before the start of narcosis. The animals are narcotized with 100 mg/kg of sodium thiobutabarbital administered intraperitone-ally. The arrhythmogenic substance is aconitine which is infused intravenously, at a dosage rate of 0.005 mg/kg×min, 60 minutes after administration of the novel substance. In the case of untreated animals (N=52), arrhythmias are noted in the electrocardiogram after 2.74±0.07 min, and the occurrence of these can be delayed by anti-arrhythmic agents, to an extent which depends on the dose.
(§2) The dose which prolongs the infusion duration by 50%, ie. the ED 50%, is determined from the linear relationship between log dose (mg/kg) of test substance and relative prolongation of aconitine infusion duration (Δ%).
(§3) For further characterization of the substance, the anti-arrhythmic effect of the maximum tolerated dose is determined from the decimal-geometric dosage progression (factor ^3 .cuberoot.10) used in the experiments. In addition, the dose at which toxic symptoms (changes in the initial ECG, cyanosis or cramp) occur is determined. Moreover, the anti-arrhythmic activity of the compounds according to the invention is determined on isolated left atria of male guineapigs (Pirbright white, weight 350-450 g).

Series [2] can be described thus: Toxicity in rats, oral administration: dose at which toxic symptoms (changes in the initial ECG, cyanosis or cramp) occur. In kind it is in vivo, rat (Sprague Dawley). The following applies: for TD50 / selectivity ratio: rat, in vivo; for selectivity ratio: read-out: Q (therapeutic range): quotient of toxic dose and anti-arrhythmically effective dose (ED 50%). As for the experimental part: as §1, §3

Series [3] deals with isolated left atria of male guineapigs. Description: Anti-arrhythmic activity on isolated left guineapig atria (maximum driving rate). The arrangement: species or system guineapig (Pirbright white). As to conditions: for R.A. = relative activity (maximum sequence frequency): Procainamide = 1.00; for Maximum sequence frequency EC 50%: concentration which produces a 50% decrease in the maximum sequence frequency: Tyrode's solution pH 7.4, 32° C.
Description: As a criterion of the anti-arrhythmic action, the frequency (in Hz) at which the atria are just still able to follow the sequence of pulses (the maximum driving rate) is determined by automatic continuous increase in frequency. The concentration which produces a 50% decrease in maximum driving rate, ie. the ED 50%, is calculated from the linear relationship between log concentration (mg/l) and relative decrease in maximum driving rate (Δ%).

Series [4] shares this test system. Description: Negatively inotropic effect on isolated left guineapig atria (decrease in contraction amplitude). As to conditions: for R.A. = relative activity (force of contraction): Procainamide = 1.00; for Force of contraction EC 25%: concentration which produces a 25% decrease in the force of contraction: Tyrode's solution pH 7.4, 32° C. The arrangement: species or system guineapig (Pirbright white). As for the experimental part: Atria suspended in an organ bath (volume 125 ml) containing carbogen-saturated Tyrode's solution (pH 7.4, 32° C.) are prestressed with 1.0 g and are driven by square wave pulses of 1 Hz base rhythm and double stimulation threshold values (rheo base: 0.2-1.4 V, chronaxia: 0.3-0.5 msec).
Further, the concentration which produces a 25% decrease in amplitude, ie. the EC 25%, is determined, as a measure of the negatively inotropic effect, from the linear relationship between log concentration (mg/l) and relative change in contraction amplitude (Δ%).

A short description of another series: in vivo. As to conditions: rat, in vivo; rats, oral; decimal-geometric dosage progression; read-out: Maximum effect: Dose (maximum tolerated dose). It is filed as in vivo, rat (Sprague Dawley). As for the experimental part:
as §1, §2, §3

[5] abbreviates: rats, oral, maximum tolerated dose.
Where [6] appears, read: rats, oral, greater than procainamide.
[7] abbreviates: isolated guineapig atria, compared with procainamide.

In the case of `CCN(CC)CCNC(=O)c1ccc(N)cc1` [Procainamide, procainamide, reference compound], in series [1] (setting [5]), the “Maximum effect: prolongation of duration of aconitine infusion, Δ %, at the maximum tolerated dose” value amounted to 135%. In addition, the TD50 in series [2] (po) amounted to 1000 mg/kg. Further, in series [2] (rats, oral), the selectivity ratio came out at 6.4. Further, in series [3] (isolated guineapig atria), the “R.A. = relative activity (maximum sequence frequency)” value amounted to 1.00, the “Q: quotient of EC 25% force of contraction decrease : EC 50% maximum driving rate” value stood at 0.56 and the “Maximum sequence frequency EC 50%: concentration which produces a 50% decrease in the maximum sequence frequency” value stood at 101 µg/mL. Also, in series [4], the “R.A. = relative activity (force of contraction)” value is 1.00 and the “Force of contraction EC 25%: concentration which produces a 25% decrease in the force of contraction” value is 56.4 µg/mL.
As to `COC(=O)c1sccc1OCC(O)CN1CCC(O)(c2ccccc2)CC1` (stereo not shown) [Example 1, 3-[2-hydroxy-3-(4-phenyl-4-hydroxy-piperidino)-propoxy]-thiophene-2-carboxylic acid methyl ester], the MTD in “in vivo” is 215 mg/kg. Further, in series [1] (Procainamide = 1.00, rats, oral), the “R.A. = relative activity (effective dose)” value came to 3.36. Besides, the “R.M.E. = relative maximum effect” value in series [1] (Procainamide = 1.00, rats, oral, maximum tolerated dose) was found to be 2.19. In addition, the ED50 in series [1] (Rattus norvegicus, po, read-out: ED 50%: dose which prolongs the duration of aconitine infusion by 50%) was found to be 46.8 mg/kg. Further, the “Maximum effect: prolongation of duration of aconitine infusion, Δ %, at the maximum tolerated dose” value in series [1] (setting [5]) is reported as 296%. In series [1] (setting [6]), the “anti-arrhythmic effect on aconitine-induced arrhythmia, relative to procainamide” value was 3 to 4 times. Besides, the TD50 in series [2] (rats, oral, changes in initial ECG, cyanosis or cramp, read-out: Toxicity: dose whose administration produces the first toxic symptoms) was determined as 464 mg/kg. Also, the selectivity ratio in series [2] (rats, oral) amounted to 9.9. For the same compound, the “therapeutic range (toxic dose / ED 50%), relative to procainamide” value in series [2] (setting [6]) is 1.6 times. For the same compound, in series [3] (isolated guineapig atria), the “R.A. = relative activity (maximum sequence frequency)” value is recorded as 68.7, the “Q: quotient of EC 25% force of contraction decrease : EC 50% maximum driving rate” value worked out at 2.6 and the “Maximum sequence frequency EC 50%: concentration which produces a 50% decrease in the maximum sequence frequency” value was found to be 1.47 µg/mL. In series [3] (as great as that of procainamide), the “anti-arrhythmic effect on isolated guineapig atria, relative to procainamide” value is given as 69 times. In addition, in series [3] (setting [7]), the “difference between anti-arrhythmic and negatively inotropic effect (quotient EC 25% : EC 50%), in words” value is given as “substantially greater than for procainamide”; the “therapeutic range as far as effects on guineapig atria are concerned, in words” value is recorded as “greater therapeutic range”. In addition, in series [4], the “R.A. = relative activity (force of contraction)” value is 14.8 and the “Force of contraction EC 25%: concentration which produces a 25% decrease in the force of contraction” value turned out to be 3.80 µg/mL.
